# Values joined by “and” are separate entries in the source; they are usually repeats but may differ in a detail not shown here. Equal entries are not always repeated. Where two headings read alike, the source gives them in different places.
# Columns and labels:
# TMD-8 xenograft tumor = TMD-8 xenograft tumor model; format: in vivo; conditions: for TGI: bid
# Experimental: CB17/SCID female mice with serious immune deficiency were purchased from Beijing Vital River Laboratory Animal Technology Co., Ltd. and bred in SPF animal houses. Human TMD-8 cells (Shanghai Junrui-UFBN1682) were cultured in an RPMI 1640 culture medium containing 10% fetal bovine serum, 100 U/mL penicillin and 100 μg/mL streptomycin through monolayer culture in vitro in an incubator (37° C., 5% C02). Routine treatment was performed twice a week for passaging. At a cell saturation of 80%-90% and a required number, the cells were harvested and counted. 0.2 mL (1×10^7) of TMD-8 cells (together with matrigel at a volume ratio of 1:1) were subcutaneously inoculated into the right back of each mouse, and the tumor size could be measured about one week after inoculation. Tumor size was measured using a vernier caliper and tumor volume was calculated using the following formula: tumor volume=(length×width^2)/2.
# BTK(wt) = BTK(wt) (Homo sapiens (Human), UniProt Q06187); test: In vitro inhibitory activity against BTK(wt) enzyme (33P-ATP filter binding); format: biochemical; conditions: class symbols
# Chain of BTK(wt) (Q06187 whole entry): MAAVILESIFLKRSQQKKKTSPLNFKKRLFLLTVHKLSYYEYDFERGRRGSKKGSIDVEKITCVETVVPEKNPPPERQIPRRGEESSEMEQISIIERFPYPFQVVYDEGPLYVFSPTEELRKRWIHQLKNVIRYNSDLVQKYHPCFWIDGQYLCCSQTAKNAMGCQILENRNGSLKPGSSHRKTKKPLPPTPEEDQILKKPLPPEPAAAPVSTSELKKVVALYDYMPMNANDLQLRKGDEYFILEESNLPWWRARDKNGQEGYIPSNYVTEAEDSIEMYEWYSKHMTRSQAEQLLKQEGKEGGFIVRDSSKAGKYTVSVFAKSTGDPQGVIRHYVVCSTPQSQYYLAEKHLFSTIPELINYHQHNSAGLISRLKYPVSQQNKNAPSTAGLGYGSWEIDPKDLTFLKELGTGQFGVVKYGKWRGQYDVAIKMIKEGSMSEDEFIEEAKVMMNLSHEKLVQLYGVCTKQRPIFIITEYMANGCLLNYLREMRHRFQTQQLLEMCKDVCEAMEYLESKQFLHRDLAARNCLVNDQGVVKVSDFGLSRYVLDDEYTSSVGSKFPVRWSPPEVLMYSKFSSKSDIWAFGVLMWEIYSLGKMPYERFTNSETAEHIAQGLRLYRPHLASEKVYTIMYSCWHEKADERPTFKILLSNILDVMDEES
# Experimental: The substrate solution was prepared by adding the substrate poly(Glu, Tyr) sodium salt (Sigma Aldrich, St. Louis, Mo.) to the substrate reaction buffer (20 mM Hepes (pH 7.5), 10 mM MgCl2, 1 mM EGTA, 0.02% Brij35, 0.02 mg/mL BSA, 0.1 mM Na3VO4, 2 mM DTT and 1% DMSO) (final substrate concentration in the reaction solution was 0.2 μM). Test compound was formulated into stock solutions at 10 mM concentration with 100% DMSO, and 3-fold serial dilution for 10 doses was performed in a 384-well cyclic olefin copolymer LDV microplate. […] Test compound in 100% DMSO was then added to the kinase reaction mixture by acoustic liquid transfer technology (Echo 550; nanoliter range) (Labcyte Inc, Sunnyvale, Calif.) and incubated for 20 min at room temperature. 33P-ATP (specific activity 10 μCi/μL) was added to the reaction mixture to initiate the reaction, followed by incubation at room temperature for 2 h. A small portion of the reaction mixture was dropped onto P-81 ion exchange filter paper (Whatman). After washing the unbound phosphate from the filter paper with 0.75% phosphate buffer (three times) and drying, the remaining radioactivity on the filter paper was measured. The kinase activity was expressed as the percentage of the remaining kinase activity in the test sample to the kinase activity in the vehicle (dimethyl sulfoxide) blank control. IC50 values were calculated by curve fitting the data obtained using Prism (GraphPad Software).
# BTK(C481S) = BTK(C481S) (Homo sapiens (Human), UniProt Q06187, C481S); test: pBTK inhibition in HEK293 cells transfected with BTK(C481S) (ELISA); format: cell-based; conditions: 2 h
# Chain of BTK(C481S) (Q06187 whole entry C481S): as the sequence (Q06187 whole entry) above, with C481S counted along it
# Experimental: For positive (high signal) controls, cells were treated with 0.5% DMSO alone. […] The absorbance was read at 450 nm. • Based on the absorbance readings of the positive and negative control values, the % inhibition value was calculated according to the following formula: (% INH=((positive control−sample)/(positive control−negative control))×100. • The Z′ value was calculated based on the following formula: 1−((3×standard deviation of positive+3×standard deviation of negative)/(mean positive−mean negative)). • The […] was plotted using GraphPad Prism. • IC50 values were determined after sigmoidal dose-response curve fitting.
# OCI-LY10 = test: In vitro tumor cell proliferation inhibition, OCI-LY10 (CellTiter-Glo); format: cell-based; conditions: Homo sapiens; OCI-LY10 cells, 72 h
# Experimental: (1) Method • The tumor cell line (TMD-8/OCY-LY10) was suspended in RPMI1640+FBS10% and cultured in an incubator (37° C., 5% CO2). Cells were passaged periodically, and cells at logarithmic growth phase were collected for plating. • Cell staining was performed with trypan blue and viable cells were counted. • Cell concentration was adjusted to 7000 cells/well with medium. • 90 μL of cell suspension was added to a 96-well plate and cell-free culture medium was added to the blank control wells. • Cells in the 96-well plate were incubated overnight in an incubator (37° C., 5% CO2, 100% relative humidity). • Preparation of 400× compound storage plates: test compounds and reference drug were each dissolved in DMSO and 3× diluted from the highest concentration (400 μM) to the lowest concentration (0.61 μM). • Preparation of 10× compound working solutions: 78 μL of cell culture medium was added to a V-bottom 96-well plate, and 2 μL of the compound was pipetted from the 400× compound storage plate into the 96-well plate. Vehicle control wells and blank control wells were added with 2 μL of DMSO. […] Inhibition rates of compounds at different concentrations were calculated in Excel, followed by plotting the inhibition curves and calculating IC50 values with GraphPad Prism.
# [1] = Pharmacokinetic study in male SD rats, intragastric; format: in vivo; conditions: rat, 5 mg/kg
# Experimental: Male SD rats were fasted overnight before test. The test drugs were each suspended in a solution of 0.5% methylcellulose (MC) and 0.1% SDS in deionized water (w/w/v), and the suspension, each at a concentration of 1 mg/mL, was administered intragastrically at 5 mL/kg. At 15 min, 30 min, 1 h, 2 h, 4 h, 6 h, 8 h and 24 h after administration, approximately 0.4 mL of whole blood was collected from the orbital venous plexus of the animals and then placed in heparin anticoagulant tubes. Three animals were sampled at each time point and then put to death, and thus sample collection was completed on different individuals. The whole blood sample would be centrifuged within 15 min and centrifuged at 4° C./4200 rpm for 5 min. All plasma samples were stored in a refrigerator at −80±15° C. prior to analysis. An LC-MS/MS (Waters I Class UPLC-Xevo TQD tandem mass spectrometry) assay for the compounds was established prior to sample analysis. The collected plasma was quantitatively analyzed, plasma concentration-time data of animals were analyzed using WinNonlin (professional edition, version 5.2) software, a non-compartmental model was used for concentration analysis, and the pharmacokinetic parameters of the test compounds were calculated.
smiles,measurement,setting,value
"Nc1nccn2c(C34CCC(NC(=O)CN5CCOCC5)(CC3)C4)nc(-c3ccc(C(=O)Nc4cc(C(F)(F)F)ccn4)cc3)c12 [Compound A-10-10, 4-(8-amino-3-(4-(2-morpholinoacetamido)bicyclo[2.2.1]heptan-1-yl)imidazo[1,5-a]pyrazin-1-yl)-N-(4-(trifluoromethyl)pyridin-2-yl)benzamide]",xenograft tumors disappeared (fraction),"TMD-8 xenograft tumor; 50 mg/kg group, after 27 days of administration",5/8
same,tolerance of tumor-bearing mice,TMD-8 xenograft tumor; all dosages,good tolerance
same,effect on body weight of tumor-bearing mice,TMD-8 xenograft tumor; all treatment groups,no significant weight loss
same,TGI,TMD-8 xenograft tumor; intragastric 25 mg/kg,94%
same,TGI,TMD-8 xenograft tumor; intragastric 50 mg/kg,104%
same,IC50,BTK(wt),1 to 10 nM
same,IC50,BTK(C481S),66 nM and 63 nM
same,IC50,OCI-LY10,10.3 nM
same,AUC(0-inf),"[1]; male, SD, plasma, po",73300 ng·h/mL
same,Tmax,"[1]; male, SD, plasma, po",2 h
same,half-life,"[1]; male, SD, plasma, po",3.74 h
same,Cmax,"[1]; male, SD, plasma, po, p.o., read-out: Cmax",8320 ng/mL
same,AUC0-INF,[1]; p.o.,73318 ng·h/mL
same,Cmax,[1]; p.o.,8323 ng/mL

# From patent US11420975B2, “Substituted imidazo[1,5-a]pyrazines as Bruton's tyrosine kinase inhibitors” (TRANSTHERA SCIENCES (NANJING), INC., priority 2018, dated 2022)
